Assay type in all cases: in vivo
Assay [1] deals with Ctenocephalides felis. The experiment in a line: Ctenocephalides felis in vitro contact test with adult cat fleas. To be noted: application rate 5 μg/cm^2 (500 g/ha); after 48 h; fleas dead or moribund. In outline: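 Test tubes were coated with 250 μl acetone solution of compound, giving 5 μg/cm^2 at 900 ppm, then dried and stocked with 5-10 adult cat fleas. After 48 h at room temperature and ambient humidity, dead or moribund fleas were counted; efficacy given as % (100% = all dead or moribund).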

Assay [2] concerns Lucilia cuprina. Description: Lucilia cuprina test. As to conditions: application rate 100 ppm; L1 larvae; after 2 days. In outline: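 About 20 L1 larvae placed in vessels with minced horsemeat treated with compound (DMSO concentrate diluted in water) at the desired concentration. Kill (%) scored after 2 days; 100% means all larvae dead, 0% none.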
For assay [3], the system named is Phaedon cochleariae. The experiment in a line: Phaedon cochleariae spray test. To be noted: application rate 100 g/ha; larvae; after 7 days. In outline: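 Chinese cabbage leaf discs were sprayed with the compound formulated in water containing 1000 ppm emulsifier. After drying, they were infested with mustard beetle larvae. Efficacy was scored as % larvae killed after 7 days (100% = all dead, 0% = none).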

Assay [4] deals with Myzus persicae. The experiment in a line: Myzus persicae spray test. To be noted: application rate 100 g/ha; after 6 days. On the procedure:
Myzus persicae—Spray Test
To produce an appropriate active ingredient formulation, 1 part by weight of active ingredient is dissolved using the specified parts by weight of solvent and made up with water containing an emulsifier concentration of 1000 ppm until the desired concentration is attained. To produce further test concentrations, the preparation is diluted with emulsifier-containing water.
Discs of Chinese cabbage leaves (Brassica pekinensis) infested by all stages of the green peach aphid (Myzus persicae) are sprayed with an active ingredient formulation of the desired concentration.
After 6 days, efficacy in % is determined. 100% means that all the aphids have been killed; 0% means that none of the aphids have been killed.

Assay [5] relates to Boophilus microplus. The experiment in a line: Boophilus microplus injection test. As to conditions: application rate 20 μg/animal; injection into abdomen; assessed after 7 days. In outline: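 Read-out is % efficacy from fertile egg laying at 7 days: 100% means no tick laid fertile eggs, 0% means all eggs fertile. Each of 5 engorged adult females received 1 μl of DMSO test solution injected abdominally.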

Assay [6] concerns Rhipicephalus sanguineus. Description: Rhipicephalus sanguineus in vitro contact test with adult brown dog ticks. To be noted: application rate 5 μg/cm^2 (500 g/ha); after 48 h; ticks dead or moribund. In outline: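 Test tubes (25 ml) were coated by dissolving active ingredient in acetone p.a., diluting to the required concentration, and spreading 250 μl over the inner walls and base on an orbital shaker at 30 rpm for 2 h. Once dry, 5-10 adult Rhipicephalus sanguineus were added, and tubes were capped with perforated lids and kept horizontal in darkness at room temperature. At 48 h, ticks were knocked down and heated at 45-50° C. for up to 5 min. Those unable to climb away were counted dead or moribund, and efficacy ran from 0% to 100%.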

Assay [7] concerns Tetranychus urticae. Description: Tetranychus urticae spray test, OP-resistant. As to conditions: application rate 100 g/ha; after 6 days. In outline:
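Bean leaf discs (Phaseolus vulgaris) carrying all stages of OP-resistant mites are sprayed with compound formulated in solvent and emulsifier-containing water. Efficacy (% mites killed) is scored after 6 days.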

Assay [8] concerns Spodoptera frugiperda. Description: Spodoptera frugiperda spray test. As to conditions: application rate 100 g/ha; caterpillars; after 7 days. In outline: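 Maize leaf discs were sprayed with compound formulated in solvent plus water containing 1000 ppm emulsifier, dried, then infested with Spodoptera frugiperda caterpillars. Efficacy in % mortality was scored after 7 days (100% all killed, 0% none).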

The test system of assay [9] is Ctenocephalides felis. Description: Ctenocephalides felis oral test. To be noted: application rate 100 ppm in citrated cattle blood; after 2 days. In outline:
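Mortality in % was recorded 2 days after about 20 unfed adult cat fleas were allowed to imbibe citrated cattle blood containing the active ingredient through a parafilm membrane. The compound was first taken up in DMSO and then diluted with the blood to the desired concentration.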

Assay [10] has as its system Boophilus microplus Parkhurst strain, SP-resistant. Description: Boophilus microplus dip test. To be noted: application rate 100 ppm, assessed after 7 days. The protocol:
Boophilus microplus—Dip Test
Test animals: cattle ticks (Boophilus microplus) Parkhurst strain, SP-resistant
(§1) Solvent: dimethyl sulphoxide
10 mg of active ingredient are dissolved in 0.5 ml of dimethyl sulphoxide. For the purpose of producing a suitable formulation, the active ingredient solution is diluted with water to the concentration desired in each case.
This active ingredient formulation is pipetted into tubes. 8-10 adult engorged female cattle ticks (Boophilus microplus) are transferred into a further tube with holes. The tube is immersed into the active ingredient formulation, and all the ticks are completely wetted. After the liquid has run out, the ticks are transferred on filter discs into plastic dishes and stored in a climate-controlled room.
Efficacy is assessed after 7 days by laying of fertile eggs. Eggs which are not visibly fertile are stored in a climate-controlled cabinet until the larvae hatch after about 42 days. An efficacy of 100% means that none of the ticks has laid any fertile eggs; 0% means that all the eggs are fertile.

Assay [11] concerns Musca domestica. The experiment in a line: Musca domestica test. As to conditions: application rate 100 ppm; adult houseflies; after 2 days. In outline:
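Percent kill of adult houseflies is recorded 2 days after exposure, where 100% denotes all flies dead and 0% none. Flies (10 per vessel) feed from a sponge carrying sugar solution and the aqueous-diluted DMSO formulation.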

The subject of assay [12] is Amblyomma hebraeum. Description: Amblyomma hebraeum test (tick nymphs, immersion). To be noted: application rate 100 ppm; tick nymphs immersed one minute; after 42 days. On the procedure: as §1
To produce an appropriate active ingredient formulation, 10 mg of active ingredient are mixed with 0.5 ml of dimethyl sulphoxide, and the concentrate is diluted with water to the desired concentration.
Tick nymphs (Amblyomma hebraeum) are placed into perforated plastic cups and immersed in the desired concentration for one minute. The ticks are transferred on filter paper into a Petri dish and stored in a climate-controlled cabinet.
After 42 days, the kill in % is determined. 100% means that all of the ticks have been killed; 0% means that none of the ticks have been killed.

Each structure is given as a SMILES string.

As to `Cn1nc(C(F)(F)C(F)(F)F)c(C(F)(F)F)c1-n1cc(-c2cccc(NC(=O)c3ccccc3)c2)cn1` [Example 1-010], the efficacy in [1], in assay [3], in assay [4], in assay [6], in assay [7] and in assay [8] was 100% throughout. For the same compound, the “efficacy (kill in %)” value in [2], in assay [9] and in [11] was 100% in each case. The “efficacy (laying of fertile eggs)” value amounted to 100% in [5] and 90% in assay [10].
In the case of `Cn1nc(C(F)(F)C(F)(F)F)c(C(F)(F)F)c1-n1cc(-c2ccc(Cl)c(NC(=O)c3ccc(F)cc3)c2)cn1` [Example 1-022], the efficacy in assay [1], in assay [3], in assay [6], in assay [7] and in assay [8] was 100% throughout. Also, the “efficacy (kill in %)” value in assay [2], in assay [12] and in assay [9] was 100% each time. The “efficacy (laying of fertile eggs)” value in [5] and in assay [10] was 100% throughout.
On to `Cn1nc(C(F)(F)C(F)(F)F)c(C(F)(F)F)c1-n1cc(-c2ccc(F)c(NC(=O)c3ccccc3)c2)cn1` [Example 1-026], for which the efficacy in assay [1], in assay [3], in [4], in assay [6], in assay [7] and in assay [8] was 100% in each case. Moreover, the “efficacy (kill in %)” value is listed as 100% in assay [2], 100% in [9] and 90% in assay [11]. In addition, the “efficacy (laying of fertile eggs)” value in [5] and in assay [10] was 100% in each case.
With `Cn1nc(C(F)(F)C(F)(F)F)c(C(F)(F)F)c1-n1cc(-c2ccc(F)c(NC(=O)c3ccc(F)cc3)c2)cn1` [Example 1-027], the efficacy in [1], in [3], in assay [4], in assay [6], in assay [7] and in [8] was 100% throughout. Further, the “efficacy (kill in %)” value in [2], in assay [9] and in [11] was 100% throughout. Moreover, the “efficacy (laying of fertile eggs)” value in assay [5] and in assay [10] was 100% in each case.
As for `Cc1ccc(-c2cnn(-c3c(C(F)(F)F)c(C(F)(F)C(F)(F)F)nn3C)c2)cc1NC(=O)c1ccc(F)cc1` [Example 1-038], the “efficacy (kill in %)” value in assay [2], in assay [12] and in assay [9] was 100% throughout. Moreover, the efficacy in [3], in assay [6], in assay [7] and in [8] was 100% each time. Also, the “efficacy (laying of fertile eggs)” value in [5] and in [10] was 100% each time.
As to `Cn1nc(C(F)(F)C(F)(F)F)c(C(F)(F)F)c1-n1cc(-c2ccc(F)c(NC(=O)c3ccc(C#N)cc3)c2)cn1` [Example 1-088], the efficacy in assay [1], in assay [3], in assay [6], in assay [7] and in assay [8] was 100% in each case. Moreover, the “efficacy (kill in %)” value in assay [2], in [12] and in assay [9] was 100% throughout. In addition, the “efficacy (laying of fertile eggs)” value in [5] and in assay [10] was 100% throughout.
Regarding `Cn1nc(C(F)(F)C(F)(F)F)c(C(F)(F)F)c1-n1cc(-c2ccc(F)c(NC(=O)c3ccnc(F)c3)c2)cn1` [Example 1-089], the efficacy in assay [1] was 100%; in [3], 100%; in assay [4] it was 90%; in assay [6], 100%; in assay [7], 100%; in assay [8], 100%. Besides, the “efficacy (kill in %)” value in [2], in [9] and in assay [11] was 100% each time. The “efficacy (laying of fertile eggs)” value in assay [5] and in assay [10] was 100% in each case.
Take `Cn1nc(C(F)(F)C(F)(F)F)c(C(F)(F)F)c1-n1cc(-c2ccc(F)c(NC(=O)c3ccc(C#N)nc3)c2)cn1` [Example 1-098]: the efficacy in assay [1] was found to be 100%; in [3] it was 100%; in [4] it was 100%; in assay [6] it was 80%; in assay [7], 100%; in [8], 100%. The “efficacy (kill in %)” value in [2] and in [9] was 100% each time. The “efficacy (laying of fertile eggs)” value in assay [5] and in [10] was 100% throughout.
`Cn1nc(C(F)(F)C(F)(F)F)c(C(F)(F)F)c1-n1cc(-c2ccc(F)c(NC(=O)c3ccc(Cl)nc3)c2)cn1` [Example 1-099]: the efficacy in assay [1], in assay [3], in assay [4], in assay [6], in [7] and in [8] was 100% each time. The “efficacy (kill in %)” value in assay [2], in assay [9] and in assay [11] was 100% each time. The “efficacy (laying of fertile eggs)” value in assay [5] and in assay [10] was 100% throughout.
As to `Cn1nc(C(F)(F)C(F)(F)F)c(C(F)(F)F)c1-n1cc(-c2ccc(F)c(NC(=O)c3ccc(F)nc3)c2)cn1` [Example 1-100], the efficacy in [1], in assay [3], in [4], in assay [6], in assay [7] and in assay [8] was 100% throughout. In addition, the “efficacy (kill in %)” value in [2], in [9] and in assay [11] was 100% in each case. In addition, the “efficacy (laying of fertile eggs)” value in assay [5] and in [10] was 100% throughout.

Source of the values: US10273226B2, “Pyrazolyl-heteroarylamides as pesticides” (Bayer Animal Health GmbH, priority 2014, dated 2019).
